According to ChEMBL document CHEMBL6177948, “Discovery of potential Leonurine-based therapeutic lead MJ210 attenuates Parkinson's disease pathogenesis via NF-κB and MAPK pathways: Mechanistic insights from in vitro and in vivo rotenone models” (Eur J Med Chem, 2025):
The source made the active and inactive calls. No cut-off for these calls is given here.

Columns and labels:
[1] = tested on: SH-SY5Y; assay: (§1) Neuroprotective activity against rotenone-induced mitochondrial ROS generation in human SH-SY5Y cells assessed as decrease in ROS level at 5 uM preincubated with compound for 24 hrs followed by rotenone addition and measured after 24 hrs by Mito Tracker staining based fluorescence microscopic analysis; assay type: functional, cell-based; conditions: time 48.0 hrs
[2] = tested on: SH-SY5Y; assay: Neuroprotective activity against rotenone-induced cytotoxicity in human SH-SY5Y cells assessed as increase in cell viability at 1 to 20 uM incubated for 24 hrs by MTT assay relative to control; assay type: functional; conditions: dose 1-20 µM
[3] = tested on: SH-SY5Y; assay: Neuroprotective activity against rotenone-induced cytotoxicity in human SH-SY5Y cells assessed as increase in green fluorescence at 5 uM by Calcein-AM and PI staining based fluorescence microscopy analysis; assay type: functional, cell-based
[4] = tested on: SH-SY5Y; assay: Anti-inflammatory activity in rotenone-induced human SH-SY5Y cells assessed as reduction in IL-6 expression by Western blotting analysis; assay type: functional, cell-based
[5] = tested on: SH-SY5Y; assay: Neuroprotective activity against rotenone-induced ROS formation in human SH-SY5Y cells assessed as decrease in ROS level at 5 uM preincubated with compound for 24 hrs followed by rotenone addition by H2DCFDA staining based fluorescence microscopic analysis; assay type: functional, cell-based
[6] = tested on: SH-SY5Y; assay: Neuroprotective activity against rotenone-induced ROS formation in human SH-SY5Y cells assessed as reduction in ROS level by measuring fluorescence intensity at 5 uM preincubated with compound for 24 hrs followed by rotenone addition and measured after 24 hrs by CellRox reagent based fluorescence microscopic analysis; assay type: functional, cell-based; conditions: time 48.0 hrs
[7] = tested on: SH-SY5Y; assay: Anti-apoptotic activity in rotenone-induced human SH-SY5Y cells assessed as reduction in Bax expression by Western blotting analysis; assay type: functional, cell-based
[8] = tested on: SH-SY5Y; assay: Reversal of rotenone-induced mitochondrial membrane depolarization in human SH-SY5Y cells assessed as increase in JC-10 aggregation by measuring red fluorescence at 5 uM preincubated with compound for 24 hrs followed by rotenone addition and measured after 24 hrs by JC-10 based fluorescence microscopic analysis; assay type: functional, cell-based
[9] = tested on: SH-SY5Y; assay: as §1, with “[…]” for “Mito Tracker”; assay type: functional, cell-based; conditions: time 48.0 hrs
[10] = tested on: SH-SY5Y; assay: Reversal of rotenone-induced mitochondrial membrane depolarization in human SH-SY5Y cells assessed as increase in aggregates fluorescence intensity at 5 uM preincubated with compound for 24 hrs followed by rotenone addition and measured after 24 hrs by JC-10 based fluorescence microscopic analysis; assay type: functional, cell-based; conditions: time 48.0 hrs
[11] = tested on: SH-SY5Y; assay: Anti-inflammatory activity against rotenone-induced human SH-SY5Y cells assessed as reduction in CoX-2 mRNA expression level by RT-qPCR analysis; assay type: functional, cell-based
[12] = tested on: SH-SY5Y; assay: Inhibition of MAPK signaling pathway in rotenone-induced human SH-SY5Y cells assessed as reduction in ERK1/2 phosphorylation level by ELISA; assay type: cell-based
[13] = tested on: SH-SY5Y; assay: Inhibition of MAPK signaling pathway in rotenone-induced human SH-SY5Y cells assessed as reduction in P-38 phosphorylation level by ELISA; assay type: cell-based
[14] = tested on: Rattus norvegicus; assay: Anti-parkinson activity in rotenone-induced male Wistar rat model assessed as prevention of rotenone-induced dopaminergic neuronal death at 5 mg/kg, ip by immunoblotting analysis; assay type: functional, organism-based
[15] = tested on: Rattus norvegicus; assay: Anti-parkinson activity in rotenone-induced male Wistar rat model assessed as improvement in bradykinesia at 5 mg/kg, ip pretreated with compound every alternative days followed by rotenone addition and measured after 42 days by pole test; assay type: functional, organism-based; conditions: time 42.0 day
[16] = tested on: Rattus norvegicus; assay: Improvement in rotenone-induced depression-like behavior in male Wistar rat model assessed as improvement in sucrose intake at 5 mg/kg, ip pretreated with compound every alternative days followed by rotenone addition and measured after 42 days by sucrose preference test; assay type: functional, organism-based; conditions: time 42.0 day
[17] = tested on: Rattus norvegicus; assay: Anti-parkinson activity in rotenone-induced neurodegeneration in male Wistar rat model assessed as minimal neuronal loss in striatum at 5 mg/kg, ip pretreated with compound every alternative days followed by rotenone addition and measured after 42 days by H and E staining based analysis; assay type: functional, organism-based; conditions: time 42.0 day
[18] = tested on: Rattus norvegicus; assay: (§2) Anti-parkinson activity in rotenone-induced neurodegeneration in male Wistar rat model assessed as minimal neuronal loss in substantia nigra at 5 mg/kg, ip pretreated with compound every alternative days followed by rotenone addition and measured after 42 days by H and E staining based analysis; assay type: functional, organism-based; conditions: time 42.0 day
[19] = tested on: Rattus norvegicus; assay: Anti-parkinson activity in rotenone-induced neurodegeneration in male Wistar rat model assessed as reduced edema in striatum at 5 mg/kg, ip pretreated with compound every alternative days followed by rotenone addition and measured after 42 days by H and E staining based analysis; assay type: functional, organism-based; conditions: time 42.0 day
[20] = tested on: Rattus norvegicus; assay: (§3) Anti-parkinson activity in rotenone-induced neurodegeneration in male Wistar rat model assessed as decrease count of pyknotic cells in cortex at 5 mg/kg, ip pretreated with compound every alternative days followed by rotenone addition and measured after 42 days by H and E staining based analysis; assay type: functional, organism-based; conditions: time 42.0 day
[21] = tested on: Rattus norvegicus; assay: as §3, with “substantia nigra” for “cortex”; assay type: functional, organism-based; conditions: time 42.0 day
[22] = tested on: Rattus norvegicus; assay: Anti-parkinson activity in rotenone-induced neurodegeneration in male Wistar rat model assessed as decrease neuronal damage in striatum at 5 mg/kg, ip pretreated with compound every alternative days followed by rotenone addition and measured after 42 days by Nissl staining based analysis; assay type: functional, organism-based; conditions: time 42.0 day
[23] = tested on: Rattus norvegicus; assay: as §2, with “reduction in pyknotic neurons” for “minimal neuronal loss”, “Nissl” for “H and E”; assay type: functional, organism-based; conditions: time 42.0 day
[24] = tested on: Rattus norvegicus; assay: Anti-parkinson activity in rotenone-induced male Wistar rat assessed as increase in TH positive fiber density in […] at 5 mg/kg, ip pretreated with compound every alternative days followed by rotenone addition and measured after 42 days by immunofluorescence staining based analysis; assay type: functional, organism-based; conditions: time 42.0 day
[25] = tested on: Rattus norvegicus; assay: Anti-parkinson activity in rotenone-induced male Wistar rat assessed as increase in TH positive fiber density in striatum at 5 mg/kg, ip pretreated with compound every alternative days followed by rotenone addition and measured after 42 days by immunofluorescence staining based analysis; assay type: functional, organism-based; conditions: time 42.0 day
[26] = tested on: Rattus norvegicus; assay: (§4) In vivo inhibition of MAPK signaling pathway in rotenone-induced parkinson disease male Wistar rat model assessed as reduction in P-38 phosphorylation level in substantia nigra at 5 mg/kg, ip pretreated with compound every alternative days followed by rotenone addition and measured after 42 days by Western blotting analysis; assay type: functional, organism-based; conditions: time 42.0 day
[27] = tested on: Rattus norvegicus; assay: as §4, with “striatum” for “substantia nigra”; assay type: functional, organism-based; conditions: time 42.0 day
[28] = tested on: Rattus norvegicus; assay: as §4, with “JNK” for “P-38”, “striatum” for “substantia nigra”; assay type: functional, organism-based; conditions: time 42.0 day
[29] = tested on: Rattus norvegicus; assay: Anti-inflammatory activity in rotenone-induced male Wistar rat model assessed as reduction in IL-1beta expression level in striatum at 5 mg/kg, ip pretreated with compound every alternative days followed by rotenone addition and measured after 42 days by ELISA; assay type: functional, organism-based; conditions: time 42.0 day
[30] = tested on: Rattus norvegicus; assay: Anti-inflammatory activity in rotenone-induced male Wistar rat model assessed as reduction in IL-1beta expression level in substantia nigra at 5 mg/kg, ip pretreated with compound every alternative days followed by rotenone addition and measured after 42 days by ELISA; assay type: functional, organism-based; conditions: time 42.0 day
[31] = tested on: Rattus norvegicus; assay: Anti-inflammatory activity in rotenone-induced male Wistar rat model assessed as reduction in phosphorylated NF-kappaB P65 protein expression level in striatum at 5 mg/kg, ip pretreated with compound every alternative days followed by rotenone addition and measured after 42 days by ELISA; assay type: functional, organism-based; conditions: time 42.0 day
[32] = Toxicity in male Wistar rat assessed as change in cellular structure of heart at 1 to 10 mg/kg by H and E staining based analysis; assay type: organism-based; conditions: in vivo, dose 1-10 mg/kg
[33] = Toxicity in male Wistar rat assessed as change in heart morphology at 1 to 10 mg/kg by H and E staining based analysis; assay type: organism-based; conditions: in vivo, dose 1-10 mg/kg
[34] = Toxicity in male Wistar rat assessed as change in liver morphology at 1 to 10 mg/kg by H and E staining based analysis; assay type: organism-based; conditions: in vivo, dose 1-10 mg/kg

Structure (SMILES): COc1cc(CCC(=O)N2CCCCC2)cc(OC)c1OC(=O)c1ccccn1
- Activity [1]: Active
- Activity [2]: 81.9%
- Activity [3]: Active
- Activity [4]: Active
- Activity [5]: Active
- Activity [6]: Active
- Activity [7]: Active
- Activity [8]: Active
- Activity [9]: Active
- Activity [10]: Active
- Activity [11]: Active
- inhibition [12]: Active
- inhibition [13]: Active
- Activity [14]: Active
- Activity [15]: Active
- Activity [16]: Active
- Activity [17]: Active
- Activity [18]: Active
- Activity [19]: Active
- Activity [20]: Active
- Activity [21]: Active
- Activity [22]: Active
- Activity [23]: Active
- Activity [24]: Active
- Activity [25]: Active
- inhibition [26]: Active
- inhibition [27]: Active
- inhibition [28]: Active
- Activity [29]: Active
- Activity [30]: Active
- Activity [31]: Active
- Activity [32]: Non-toxic
- Activity [33]: Non-toxic
- Activity [34]: Non-toxic
